US20260297105A1, “RAF-MEK PROTEIN COMPLEX MODULATORS AND METHODS OF USE THEREOF” (GANDEEVA THERAPEUTICS, INC., priority 2023, published 2026)
Like-named read-outs stand apart in the source and are kept apart here.

What was measured:
MEK1 = target: T1, MEK1 (Homo sapiens, UniProt Q02750); experiment: MEK1 kinase cascade assay (ADP-Glo), inhibition of MEK1 kinase activity; assay type: biochemical; settings: 25 nM BRAF, 6.25 nM MEK1, 0.5 μM ERK, 1 mM ATP; 20 min preincubation, 1 hr at 25° C.; read-out: BRAF ADP Glo kinase assay V3 (IC50)
T1 construct: purchased SignalChem M02-14H
Procedure, shortened: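 Cascade format with ADP-Glo read-out: BRAF (25 nM) and compound, 1% DMSO, 20 mins at 25° C, then MEK1 6.25 nM, ERK1 0.5 μM, ATP 1 mM for 1 hr at 25° C in HEPES pH 7.5 buffer with MgCl2, CHAPS and DTT. Percent inhibition, scaled between DMSO and 1 μM Trametinib, was fit by 4-parameter logistic to give IC50 (2 replicate wells).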

NCI-H292 cells = experiment: Cell viability assay (CellTiter-Glo), NCI-H292; assay type: cell-based; settings: Homo sapiens, 72 hrs, read-out: Cell Viability Assay: IC50 Determination NCI-H292
Description: Cell culture: HCTI 16, HT-29, and NCI-H292 cells were acquired from American Type Culture Collection (ATCC). HCT116 and HT-29 cells were maintained in ATCC-formulated McCoy's 5a Medium Modified supplemented with 10% fetal bovine serum, NCI-H292 cells were cultured in ATCC formulated RPMI-1640 supplemented with 10% fetal bovine serum. All cells were maintained at 37° C., 5% CO2.
Efficacy of exemplary compounds in inhibition of cell viability: HCT116 and HT-29 cells were plated at 4,000 cells per well and NCI-H292 cells were plated at 2,000 cells per well in their respective media in 384-well white, TC-treated plates (Corning). After 24 hours of incubation, the cells were treated with vehicle (DMSO) or test compounds (0.1% DMSO in final volume) for 72 hrs. The plate was equilibrated at room temperature for 10 mins followed by addition of a 1:1 volume of CellTiter-Glo® reagent (Promega). The contents were mixed for 2 mins on an orbital shaker to induce lysis. The plate was incubated at room temperature for 10 mins to stabilize luminescent signal before measuring luminescence on a Cytation5 microplate reader (Agilent). % inhibition as a function of compound concentration from 3 replicate wells was fit with a 4-parameter logistic curve using GraphPad Prism or CDD Vault to derive IC50 values.
In this table, for the BRAF ADP Glo kinase assay, “A” indicates IC50 of less than 5 nM; “B” indicates IC50 of between 5 nM to 50 nM; and “C” indicates IC50 of between 50 nM to 500 nM. “D” indicates IC50 of greater than 500 nM. For the BRAF-MEK TR-FRET assay, “A” indicates EC50 of less than 50 nM; “B” indicates EC50 of between 50 nM to 200 nM; and “C” indicates EC50 of between 200 nM to 1 μM. “D′” indicates EC50 of greater than 1 μM. For the AlphaLisa P-ERK assay, “A” indicates IC50 of less than 1 nM; “B” indicates IC50 of between 1 nM to 10 nM; and “C” indicates IC50 of between 10 nM to 100 nM. “D” indicates IC50 of greater than 100 nM. For the cell viability assay, “A” indicates IC50 of less than 1 nM; “B” indicates IC50 of between 1 nM to 10 nM; and “C” indicates IC50 of between 10 nM to 100 nM. “D” indicates IC50 of greater than 100 nM.

BRAF-MEK1 = experiment: BRAF-MEK TR-FRET assay, stabilization of MEK1 and BRAF interaction; assay type: binding; settings: 4 nM BRAF, 10 nM MEK, 100 μM ATP, 1 hr at 25° C., read-out: BRAF-MEK TR-FRET Assay (EC50, fold stabilization)
Procedure, shortened: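 Read-out is fold stabilization (treated FRET ratio/DMSO, Em 665/620 nm), fit 4-parameter for EC50 from 2 replicates. Compounds sat with 4 nM GST-BRAF and 10 nM in-house His-MEK1 1 h at 25° C (Tris pH 7.5, MgCl2, 100 μM ATP), then detection antibodies 1 h.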

T1 sequence (Q02750 whole entry): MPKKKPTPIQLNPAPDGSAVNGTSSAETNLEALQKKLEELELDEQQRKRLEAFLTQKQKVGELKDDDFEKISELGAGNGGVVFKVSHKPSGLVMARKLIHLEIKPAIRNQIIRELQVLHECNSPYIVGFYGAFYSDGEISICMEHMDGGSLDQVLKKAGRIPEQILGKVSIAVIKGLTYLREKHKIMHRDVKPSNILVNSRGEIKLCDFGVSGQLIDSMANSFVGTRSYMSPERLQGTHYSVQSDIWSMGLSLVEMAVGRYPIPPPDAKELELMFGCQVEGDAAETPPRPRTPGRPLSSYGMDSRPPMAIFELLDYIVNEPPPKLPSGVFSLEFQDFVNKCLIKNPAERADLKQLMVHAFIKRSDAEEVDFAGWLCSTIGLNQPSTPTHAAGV
T1 sequence (P15056 445-723 partner limits assumed): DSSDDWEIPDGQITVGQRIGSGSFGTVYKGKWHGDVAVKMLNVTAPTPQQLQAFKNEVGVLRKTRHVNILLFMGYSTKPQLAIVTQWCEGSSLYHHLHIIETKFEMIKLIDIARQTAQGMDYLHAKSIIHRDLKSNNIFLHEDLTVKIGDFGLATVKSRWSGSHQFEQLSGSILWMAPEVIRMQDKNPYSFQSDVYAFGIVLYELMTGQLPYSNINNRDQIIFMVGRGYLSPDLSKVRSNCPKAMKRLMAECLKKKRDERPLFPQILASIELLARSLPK

Compound	IC50 (MEK1)	IC50 (NCI-H292 cells)	EC50 (BRAF-MEK1)	EC50 (BRAF-MEK1; 60 min)
CNS(=O)(=O)Nc1cccc(CN2C(=O)Oc3cc(OC(=O)N(C)C)c(Cl)cc3[C@@H]2C)c1F [Compound 108, (S)-6-chloro-7-(dimethylaminocarbonyloxy)-3-{[2-fluoro-3-(methylaminosulfonylamino)phenyl]methyl}-4-methyl-3,4-dihydro-2H-1,3-benzoxazin-2-one]	5 to 50 nM	< 1 nM	50 to 200 nM	–
CNS(=O)(=O)Nc1cccc(CN2Cc3cc(C)c(OC(=O)N(C)C)cc3OC2=O)c1F [Compound 112, 3-(2-fluoro-3-((N-methylsulfamoyl)amino)benzyl)-6-methyl-2-oxo-3,4-dihydro-2H-benzo[e][1,3]oxazin-7-yl dimethylcarbamate]	< 5 nM	1 to 10 nM	200 to 1000 nM	–
CNS(=O)(=O)Nc1cccc(CN2C(=O)Oc3cc(Oc4ncco4)c(F)cc3C23COC3)c1F [Compound 73]	5 to 50 nM	1 to 10 nM	–	–
O=C1Oc2cc(Oc3ncco3)ccc2C2(CCC2)N1Cc1ccnc(NS(=O)(=O)C2CC2)c1F [Compound 167, (cyclopropylsulfonyl)[3-fluoro-4-({7-(1,3-oxazol-2-yloxy)-2-oxo-2H,3H-spiro[1,3-benzoxazine-4,1′-cyclobutan]-3-yl}methyl)-2-pyridyl]amine]	5 to 50 nM	10 to 100 nM	50 to 200 nM	–
CN(C)C(=O)Oc1ccc2c(c1)OC(=O)N(Cc1cccc(NS(=O)(=O)C3CC3)c1F)C2 [Compound 125, 3-(3-(cyclopropanesulfonamido)-2-fluorobenzyl)-2-oxo-3,4-dihydro-2H-benzo[e][1,3]oxazin-7-yl dimethylcarbamate]	5 to 50 nM	10 to 100 nM	200 to 1000 nM	–
CNS(=O)(=O)Nc1cccc(CN2Cc3ccc(Oc4ncccn4)c(F)c3OC2=O)c1F [Compound 123, 8-fluoro-3-{[2-fluoro-3-(methylaminosulfonylamino)phenyl]methyl}-7-(2-pyrimidinyloxy)-3,4-dihydro-2H-1,3-benzoxazin-2-one]	5 to 50 nM	10 to 100 nM	200 to 1000 nM	–
CNS(=O)(=O)Nc1cccc(CN2C(=O)Oc3c(ccc(OC(=O)N(C)C)c3F)[C@@H]2C)c1F (single isomer, unassigned) [Compound 103, (S)-8-fluoro-3-(2-fluoro-3-((N-methylsulfamoyl)amino)benzyl)-4-methyl-2-oxo-3,4-dihydro-2H-benzo[e][1,3]oxazin-7-yl dimethylcarbamate or (R)-8-fluoro-3-(2-fluoro-3-((N-methylsulfamoyl)amino)benzyl)-4-methyl-2-oxo-3,4-dihydro-2H-benzo[e][1,3]oxazin-7-yl dimethylcarbamate]	5 to 50 nM	1 to 10 nM	200 to 1000 nM	–
CNS(=O)(=O)Nc1cccc(CN2C(=O)Oc3cc(Oc4cccnn4)cc(F)c3[C@@H]2C)c1F (single isomer, unassigned) [Compound 56]	5 to 50 nM	10 to 100 nM	200 to 1000 nM	–
CNS(=O)(=O)Nc1nccc(CN2C(=O)Oc3cc(Oc4ncco4)c(F)cc3C23CCC3)c1F [Compound 165, 6-fluoro-3-{[3-fluoro-2-(methylaminosulfonylamino)-4-pyridyl]methyl}-7-(1,3-oxazol-2-yloxy)-2H,3H-spiro[1,3-benzoxazine-4,1′-cyclobutan]-2-one]	< 5 nM	1 to 10 nM	< 50 nM	–
CNS(=O)(=O)Nc1nccc(CN2C(=O)Oc3cc(Oc4ncco4)cc(F)c3C23CCC3)c1F [Compound 169, 5-fluoro-3-{[3-fluoro-2-(methylaminosulfonylamino)-4-pyridyl]methyl}-7-(1,3-oxazol-2-yloxy)-2H,3H-spiro[1,3-benzoxazine-4,1′-cyclobutan]-2-one]	5 to 50 nM	1 to 10 nM	< 50 nM	–
CNS(=O)(=O)Nc1cccc(CN2C(=O)Oc3cc(Oc4ncco4)ccc3C2(C)C)c1F [Compound 74, 3-({2-fluoro-3-[(methylsulfamoyl)amino]phenyl}methyl)-4,4-dimethyl-7-(1,3-oxazol-2-yloxy)-3,4-dihydro-2H-1,3-benzoxazin-2-one]	5 to 50 nM	1 to 10 nM	–	–
CNS(=O)(=O)Nc1nccc(CN2C(=O)Oc3cc(Oc4cccnn4)ccc3[C@H]2C)c1F (single isomer, unassigned) [Compound 23]	5 to 50 nM	–	< 50 nM	–
CNS(=O)(=O)Nc1cccc(CN2C(=O)Oc3cc(Oc4ncco4)ccc3[C@H]2C)c1F (single isomer, unassigned) [Compound 79, (R)-3-({2-fluoro-3-(methylsulfamoyl)amino]phenyl}methyl)-4-methyl-7-(1,3-oxazol-2-yloxy)-3,4-dihydro-2H-1,3-benzoxazin-2-one or (S)-3-({2-fluoro-3-(methylsulfamoyl)amino]phenyl}methyl)-4-methyl-7-(1,3-oxazol-2-yloxy)-3,4-dihydro-2H-1,3-benzoxazin-2-one]	5 to 50 nM	10 to 100 nM	–	–
CN(C)C(=O)Oc1ccc2c(c1)OC(=O)N(Cc1cccc(NS(=O)(=O)N(C)C)c1F)C21CCC1 [Compound 33, 3-({3-[(dimethylsulfamoyl)amino]-2-fluorophenyl}methyl)-2-oxo-2,3-dihydrospiro[1,3-benzoxazine-4,1′-cyclobutan]-7-yl N,N-dimethyl carbamate]	5 to 50 nM	–	50 to 200 nM	–
CN(C)C(=O)Oc1ccc2c(c1)OC(=O)N(Cc1cccc(NS(=O)(=O)N3CC4(COC4)C3)c1F)C2 [Compound 109, 3-(2-fluoro-3-(2-oxa-6-azaspiro[3.3]heptane-6-sulfonamido)benzyl)-2-oxo-3,4-dihydro-2H-benzo[e][1,3]oxazin-7-yl dimethylcarbamate]	5 to 50 nM	–	200 to 1000 nM	–
CNS(=O)(=O)Nc1cccc(CN2C(=O)Oc3cc(Oc4cccnn4)cnc3[C@H]2C)c1F (stereo in doubt) [Compound 175]	5 to 50 nM	–	50 to 200 nM	–
CNS(=O)(=O)Nc1cccc(CN2Cc3cc(F)c(OC(=O)N(C)C)c(F)c3OC2=O)c1F [Compound 96, 6,8-difluoro-3-(2-fluoro-3-((N-methylsulfamoyl)amino)benzyl)-2-oxo-3,4-dihydro-2H-benzo[e][1,3]oxazin-7-yl dimethylcarbamate]	< 5 nM	–	50 to 200 nM	–
CNS(=O)(=O)Nc1cccc(CN2Cc3ccc(Oc4ncco4)c(F)c3OC2=O)c1F [Compound 91, 8-fluoro-3-{[2-fluoro-3-(methylaminosulfonylamino)phenyl]methyl}-7-(1,3-oxazol-2-yloxy)-3,4-dihydro-2H-1,3-benzoxazin-2-one]	< 5 nM	–	200 to 1000 nM	–
CNS(=O)(=O)Nc1cccc(CN2C(=O)Oc3cc(Oc4cccnn4)cnc3C23CC3)c1F [Compound 201, 2′-{[2-fluoro-3-(methylaminosulfonylamino)phenyl]methyl}-6′-(3-pyridazinyloxy)-2′H,3′H-4′-oxa-2′,8′-diazaspiro[cyclopropane-1,1′-naphthalen]-3′-one]	< 5 nM	–	< 50 nM	–
CNS(=O)(=O)Nc1nccc(CN2C(=O)Oc3cc(Oc4ncco4)c(F)cc3C2C)c1F (single isomer, unassigned) [Compound 185, 6-fluoro-3-{[3-fluoro-2-(methylaminosulfonylamino)-4-pyridyl]methyl}-4-methyl-7-(1,3-oxazol-2-yloxy)-3,4-dihydro-2H-1,3-benzoxazin-2-one]	5 to 50 nM	–	–	50 to 200 nM
